Broadly, the inhibition is the change of the read-out against control, counted positive when it falls.

The record followed here is patent EP1761537B1, “PYRROLO[2,1-C][1,4]BENZODIAZEPINE-NAPTHALIMIDE […] THROUGH […] AND PROCESS FOR PREPARATION THEREOF” (Council of Scientific and Industrial Research, priority 2004, dated 2006).

The test system of test [1] is CT-DNA. As to the kind of experiment: DNA Thermal Denaturation Studies. It counts as binding. As to conditions: 1:5 molar ratio [PBD]/[DNA], CT-DNA 100 µM, ligand 20 µM, 10 mM sodium phosphate + 1 mM EDTA, pH 7.00. As to the method: For CT-DNA alone at pH 7.00 ± 0.01, Tm = 69.8 °C ± 0.01 (mean value from 10 separate determinations), all ΔTm values are ± 0.1 - 0.2 °C. For a 1:5 molar ratio of [PBD]/[DNA], where CT-DNA concentration = 100 µM and ligand concentration = 20 µM in aqueous sodium phosphate buffer [10 mM sodium phosphate + 1 mM EDTA, pH 7.00 ± 0.01].

The test system of test [2] is HCT-15. As to the kind of experiment: In vitro cytotoxicity against human cancer cell lines (sulforhodamine B). It counts as cell-based. The settings on record: HCT-15 (colon), 48 hours, read-out: percentage growth inhibition; for inhibition at 10 µM: 10^-5 mol/L; for inhibition at 1 µM: 10^-6 mol/L. As to the method: (§1) In vitro cytotoxicity against human cancer cell lines: The human cancer cell lines procured from National Cancer Institute, Frederick, U.S.A or National Center for Cell Science; Pune, India. were used in present study. Cells were grown in tissue culture flasks in complete growth medium (RPMI-1640 medium with 2 mM glutamine, 100 µg/ml streptomycin, pH 7.4, sterilized by filtration and supplemented with 10% fetal calf serum and 100 units/ml penicillin before use) at 37°C in an atmosphere of 5% CO2 and 90% relative humidity in a carbon dioxide incubator. The cells at subconfluent stage were harvested from the flask by treatment with trypsin (0.5% in PBS containing 0.02% EDTA) for determination of cytotoxicity. Cells with viability of more than 98% as determined by trypan blue exclusion were used for assay. The cell suspension of the required cell density were prepared in complete growth medium with gentamycin (50µg/ml) for determination of cytotoxicity.
(§2) A stock solutions of (2 X 10^-2 M) of test material were prepared in DMSO . The stock solutions were serially diluted with complete growth medium containing 50µg/ml of gentamycin to obtain working test solutions of required concentrations.
(§3) In vitro cytotoxicity against human cancer cell lines was determined (Monks, A., Scudiero, D., Skehan, P, Shoemaker R, Paull, K., Vistica, D., Hose, C., Langley, J., Cronise, P., Vaigro-Wolff, A., Gray-Goodrich, M.; Campbell,H., Mayo, J and Boyd M. J. Natl. Cancer Inst.,1991,83, 757-766) using 96-well tissue culture plates. The 100 µl of cell suspension was added to each well of the 96-well tissue culture plate. The cells were incubated for 24 hours. Test materials in complete growth medium (100µl) were added after 24 hours incubation to the wells containing cell suspension. The plates were further incubated for 48 hours (at 37°C in an atmosphere of 5% and 90% relative humidity in a carbon dioxide incubator) after addition of test material and then the cell growth was stopped by gently layering trichloroacetic acid (TCA, 50µl, 50%) on top of the medium in all the wells. The plates were incubated at 4°C for one hour to fix the cells attached to the bottom of the wells. The liquid of all the wells was gently pipetted out and discarded. The plates were washed five times with distilled water to remove TCA, growth medium low molecular weight metabolites, serum proteins etc and air-dried. Cell growth was measured by staining with sulforhodamine B dye (Skehan et al., 1990). The adsorbed dye was dissolved in Tris-Buffer ([…], 0.01M, pH 10.4) and plates were gently stirred for 5 minutes on a mechanical stirrer. The optical density was recorded on ELISA reader at 540 nm.
(§4) The cell growth was calculated by subtracting mean OD value of respective blank from the mean OD value of experimental set. Percent growth in presence of test material was calculated considering the growth in absence of any test material as 100% and in turn percent growth inhibition in presence of test material will be calculated.

Test [3] concerns HOP-62. The test is described as above. It counts as cell-based. As to conditions: HOP-62 (lung), 48 hours, read-out: percentage growth inhibition; for inhibition at 10 µM: 10^-5 mol/L; for inhibition at 1 µM: 10^-6 mol/L. As to the method: as §1, §2, §3, §4
Test [4] has as its system SiHa. The description is as above. It counts as cell-based. As to conditions: SiHa (cervix), 48 hours, read-out: percentage growth inhibition; for inhibition at 100 µM: 10^-4 mol/L; for inhibition at 10 µM: 10^-5 mol/L; for inhibition at 1 µM: 10^-6 mol/L. How it is done:
as §1, §2, §3, §4

Test [5] relates to A-549. The description is as above. The settings on record: A549, A-549 (lung), 48 hours, read-out: percentage growth inhibition; for inhibition at 100 µM: 10^-4 mol/L. In kind it is cell-based. As to the method: as §1, §2, §3, §4
The test system of test [6] is HT-29. The description is as above. In kind it is cell-based. The settings on record: HT-29 (colon), 48 hours, read-out: percentage growth inhibition; for inhibition at 100 µM: 10^-4 mol/L; for inhibition at 10 µM: 10^-5 mol/L; for inhibition at 1 µM: 10^-6 mol/L. How it is done: as §1, §2, §3, §4

The structures appear in SMILES notation.

On to `COc1cc2c(cc1OCCCCN1CCN(CCN3C(=O)c4cccc5cccc(c45)C3=O)CC1)N=C[C@@H]1CCCN1C2=O` [VIIIc, 7-Methoxy-8-{4-[4-[2-(1,3-dioxo-benz[de]isoquinolin-2-yl)ethyl]piperazin-1-yl]butyl}-oxy-(11aS)-1,2,3,11a tetrahydro-5H-pyrrolo [2,1-c][1,4]benzodiazepin-5-one], for which the “Induced […]Tm °C after incubation at 37 °C” value was 23.4 °C in test [1] (0 h incubation at 37 °C) and 24.2 °C in test [1] (18 h incubation at 37 °C). Besides, the inhibition at 10 µM in test [2] was determined as 69%; in test [3] it was 93%; in test [4], 39%; in test [6], 86%. The figures for the inhibition at 1 µM in test [2], in test [3] and in test [6] were 60%, 86% and 80%, respectively. Besides, the inhibition at 100 µM in test [4] was found to be 56%; in test [5], 95%; in test [6], 94%.
In the case of `COc1cc2c(cc1OCCCN1CCN(CCN3C(=O)c4cccc5cccc(c45)C3=O)CC1)N=C[C@@H]1CCCN1C2=O` [VIIIb, 7-Methoxy-8-{3-[4-[2-(1,3-dioxo-benz[de]isoquinolin-2-yl)ethyl]piperazin-1-yl]propyl}-oxy-(11aS)-1,2,3,11a tetrahydro-5H-pyrrolo [2,1-c][1,4]benzodiazepin-5-one], the results for the “Induced […]Tm °C after incubation at 37 °C” value in test [1] (0 h incubation at 37 °C) and in test [1] (18 h incubation at 37 °C) were 25.8 °C and 26.7 °C, respectively. Also, the inhibition at 10 µM was determined as 59% in test [2], 86% in test [3], 44% in test [4] and 85% in test [6]. Also, the inhibition at 1 µM in test [2] worked out at 58%; in test [3] it was 72%; in test [4], 54%; in test [6], 91%. Besides, the inhibition at 100 µM in test [5] and in test [6] was 88% in each case.
For `COc1cc2c(cc1OCCN1CCN(CCN3C(=O)c4cccc5cccc(c45)C3=O)CC1)N=C[C@@H]1CCCN1C2=O` [VIIIa, 7-Methoxy-8-{2-[4-[2-(1,3-dioxo-benz[de]isoquinolin-2-yl)ethyl]piperazin-1=yl]ethyl}-oxy-(11aS)-1,2,3,11a tetrahydro-5H-pyrrolo [2,1-c][1,4]benzodiazepin-5-one], the “Induced […]Tm °C after incubation at 37 °C” value stood at 21.9 °C in test [1] (0 h incubation at 37 °C) and 22.7 °C in test [1] (18 h incubation at 37 °C).
`COc1cc2c(cc1OCCCN1CCN(CCCN3C(=O)c4cccc5cccc(c45)C3=O)CC1)N=C[C@@H]1CCCN1C2=O` [VIIId, 7-Methoxy-8-{3-[4-[3-(1,3-dioxo-benz[de]isoquinolin-2-yl)propyl]piperazin-1-yl]propyl}-oxy-(11aS)-1,2,3,11a tetrahydro-5H-pyrrolo [2,1-c][1,4]benzodiazepin-5-one]: the “Induced […]Tm °C after incubation at 37 °C” value in test [1] (0 h incubation at 37 °C) is 13.1 °C; in test [1] (18 h incubation at 37 °C), 14.3 °C. For the same molecule, the inhibition at 100 µM in test [3] (10^-4 mol/L) was 78%; in test [4], 85%; in test [5], 95%; in test [6] it was 95%. The inhibition at 10 µM in test [4] came out at 65%; in test [5] (10^-5 mol/L) it was 30%; in test [6], 62%. For the same molecule, the figures for the inhibition at 1 µM in test [4], in test [5] (10^-6 mol/L) and in test [6] were 31%, 51% and 63%, respectively.
In the case of `COc1cc2c(cc1O)N=CC1CCCN1C2=O` (centres unmarked) [DC-81, reference compound], the “Induced […]Tm °C after incubation at 37 °C” value in test [1] (0 h incubation at 37 °C) is 0.3 °C; in test [1] (18 h incubation at 37 °C), 0.7 °C.
In the case of `COc1cc2c(cc1OCCCCN1CCN(CCCCN3C(=O)c4cccc5cccc(c45)C3=O)CC1)N=C[C@@H]1CCCN1C2=O` [VIIIe, 7-Methoxy-8-{4-[4-[4-(1,3-dioxo-benz[de]isoquinolin-2-yl)butyl]piperazin-1-yl]butyl}-oxy-(11aS)-1,2,3,11a tetrahydro-5H-pyrrolo [2,1-c][1,4]benzodiazepin-5-one], the “Induced […]Tm °C after incubation at 37 °C” value in test [1] (0 h incubation at 37 °C) came to 20.9 °C; in test [1] (18 h incubation at 37 °C), 21.7 °C. Further, the inhibition at 10 µM in test [2] was 62%; in test [3] it was 93%; in test [4] it was 40%; in test [6] it was 78%. Also, the inhibition at 1 µM came to 59% in test [2], 80% in test [3], 44% in test [4] and 67% in test [6]. For the same molecule, the inhibition at 100 µM in test [4] was found to be 42%; in test [5], 93%; in test [6], 92%.
